Results published in PubChem BioAssay (NCI).
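Grown in 96-well plates, cells were treated for 48 hours with each compound at five concentrations. Insufficient inhibition: endpoint recorded as highest concentration tested. At the TGI there is no net growth.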

Tests used:
Assay in all cases: NCI anticancer screen, dose series, 48 h
SK-MEL-2 melanoma = tested on: SK-MEL-2 melanoma
NCI-H522 lung = tested on: NCI-H522 lung
SK-OV-3 ovarian = tested on: SK-OV-3 ovarian
SF-268 CNS = tested on: SF-268 CNS
OVCAR-4 ovarian = tested on: OVCAR-4 ovarian
HCC-2998 colon = tested on: HCC-2998 colon
RXF 393 renal = tested on: RXF 393 renal
SF-295 CNS = tested on: SF-295 CNS
TK-10 renal = tested on: TK-10 renal
SNB-19 CNS = tested on: SNB-19 CNS
MCF7 breast = tested on: MCF7 breast
T-47D breast = tested on: T-47D breast
A549 NSCLC = tested on: A549 NSCLC
HCT-116 colon = tested on: HCT-116 colon
HT29 colon = tested on: HT29 colon
786-0 renal = tested on: 786-0 renal
SW-620 colon = tested on: SW-620 colon
UO-31 renal = tested on: UO-31 renal
IGROV1 ovarian = tested on: IGROV1 ovarian
DU-145 prostate = tested on: DU-145 prostate
MDA-MB-231 breast = tested on: MDA-MB-231 breast
OVCAR-5 ovarian = tested on: OVCAR-5 ovarian
UACC-62 melanoma = tested on: UACC-62 melanoma
SK-MEL-5 melanoma = tested on: SK-MEL-5 melanoma
CCRF-CEM leukemia = tested on: CCRF-CEM leukemia
SNB-75 CNS = tested on: SNB-75 CNS
SR leukemia = tested on: SR leukemia
ACHN renal = tested on: ACHN renal
U251 CNS = tested on: U251 CNS
HOP-62 NSCLC = tested on: HOP-62 NSCLC
OVCAR-8 ovarian = tested on: OVCAR-8 ovarian
KM12 colon = tested on: KM12 colon
NCI-H460 lung = tested on: NCI-H460 lung
HCT-15 colon = tested on: HCT-15 colon
MOLT-4 leukemia = tested on: MOLT-4 leukemia
SN12C renal = tested on: SN12C renal
HOP-92 NSCLC = tested on: HOP-92 NSCLC
MDA-N = tested on: MDA-N
MDA-MB-435 = tested on: MDA-MB-435
M14 melanoma = tested on: M14 melanoma
SK-MEL-28 melanoma = tested on: SK-MEL-28 melanoma
LOX IMVI melanoma = tested on: LOX IMVI melanoma
HL-60(TB) leukemia = tested on: HL-60(TB) leukemia
HS 578T breast = tested on: HS 578T breast
A498 renal = tested on: A498 renal
MALME-3M melanoma = tested on: MALME-3M melanoma
RPMI-8226 leukemia = tested on: RPMI-8226 leukemia
NCI-H23 lung = tested on: NCI-H23 lung
CAKI-1 renal = tested on: CAKI-1 renal
NCI/ADR-RES ovarian = tested on: NCI/ADR-RES ovarian
COLO 205 colon = tested on: COLO 205 colon
EKVX NSCLC = tested on: EKVX NSCLC
BT-549 breast = tested on: BT-549 breast
PC-3 prostate = tested on: PC-3 prostate
K-562 leukemia = tested on: K-562 leukemia
UACC-257 melanoma = tested on: UACC-257 melanoma
NCI-H226 lung = tested on: NCI-H226 lung
SF-539 CNS = tested on: SF-539 CNS
OVCAR-3 ovarian = tested on: OVCAR-3 ovarian

Measured: TGI

Clc1ccccc1-c1nc2ccc(C34CC5CC(CC(C5)C3)C4)cc2[nH]1
27.8 µM: T-47D breast
36.4 µM: NCI-H23 lung
54 µM: OVCAR-5 ovarian
43.1 µM: NCI-H522 lung
88.5 µM: SN12C renal
98.5 µM: MALME-3M melanoma
23.4 µM: MCF7 breast | A549 NSCLC
32 µM: SF-295 CNS
64.6 µM: TK-10 renal
40.8 µM: SK-MEL-2 melanoma
21.6 µM: SNB-19 CNS | SNB-75 CNS
25.9 µM: 786-0 renal
70 µM: A498 renal
40.5 µM: SR leukemia
29.8 µM: LOX IMVI melanoma
27.1 µM: UACC-62 melanoma | HOP-92 NSCLC
50.4 µM: IGROV1 ovarian
70.7 µM: M14 melanoma
34 µM: PC-3 prostate
22.8 µM: OVCAR-8 ovarian
28.1 µM: UO-31 renal
28.8 µM: ACHN renal
37.9 µM: HT29 colon | MDA-MB-231 breast
20.8 µM: RXF 393 renal
43.5 µM: BT-549 breast
34.9 µM: HOP-62 NSCLC
20.5 µM: U251 CNS
42.9 µM: SK-OV-3 ovarian
89.9 µM: HS 578T breast
not listed: SF-539 CNS | OVCAR-3 ovarian
> 100 µM: all other assays above

c1ccc(-c2cn3c(nc4ccccc43)c(-c3ccccc3)n2)cc1
> 71.9 µM: SF-295 CNS
40.3 µM: OVCAR-8 ovarian
> 78.1 µM: A498 renal
45.1 µM: 786-0 renal
> 93.4 µM: TK-10 renal
32.1 µM: U251 CNS
> 31.6 µM: MDA-N
> 65.4 µM: UO-31 renal
> 96.7 µM: NCI-H226 lung
62 µM: HOP-92 NSCLC
38.4 µM: SK-OV-3 ovarian
27.9 µM: HOP-62 NSCLC
> 94.2 µM: HS 578T breast
81.7 µM: SNB-19 CNS
> 54.3 µM: RXF 393 renal
> 26 µM: OVCAR-4 ovarian
> 55.6 µM: UACC-62 melanoma
> 62.5 µM: SK-MEL-2 melanoma
> 32.9 µM: SNB-75 CNS
> 71.3 µM: T-47D breast
> 100 µM: all other assays above

O=c1[nH]nc(-c2ccccc2)n1-c1ccncc1
not listed: SK-MEL-2 melanoma | SK-OV-3 ovarian | UACC-62 melanoma
> 100 µM: all other assays above

Ic1ccc2c(c1)N(c1ccccc1)c1cc(N=c3ccc4nc5ccc(I)cc5n(-c5ccccc5)c-4c3)ccc1N2
69 µM: NCI-H522 lung
73.1 µM: HT29 colon
94 µM: MDA-MB-435
80.1 µM: M14 melanoma
16.1 µM: OVCAR-3 ovarian
58.2 µM: HL-60(TB) leukemia
71.5 µM: COLO 205 colon
not listed: LOX IMVI melanoma
> 100 µM: all other assays above
